Experimental data as given in article PMC6757289, “Design and Characterization of SGK3-PROTAC1, an Isoform Specific SGK3 Kinase PROTAC Degrader” (ACS Chemical Biology, 2019).
Read-outs that look alike come from different tables or passages of the source.

Key:
Assay in all cases: kinase profiling panel
Format in all cases: biochemical
Conditions in all cases: read-out: % Activity Remaining
DAPK1 = DAPK1 (Homo sapiens, UniProt P53355)
From the text: (§1) Protein kinase profiling against a Dundee panel of 140 protein kinases was undertaken at the International Centre for Protein Kinase Profiling. The result for each kinase was presented as a mean kinase activity of the reaction taken in triplicate relative to a control sample treated with DMSO. Assay conditions and abbreviations are available at http://www.kinase-screen.mrc.ac.uk.

NEK2a = target: T1, NEK2a (Homo sapiens, UniProt P51955)
T1 sequence (P51955 1-445): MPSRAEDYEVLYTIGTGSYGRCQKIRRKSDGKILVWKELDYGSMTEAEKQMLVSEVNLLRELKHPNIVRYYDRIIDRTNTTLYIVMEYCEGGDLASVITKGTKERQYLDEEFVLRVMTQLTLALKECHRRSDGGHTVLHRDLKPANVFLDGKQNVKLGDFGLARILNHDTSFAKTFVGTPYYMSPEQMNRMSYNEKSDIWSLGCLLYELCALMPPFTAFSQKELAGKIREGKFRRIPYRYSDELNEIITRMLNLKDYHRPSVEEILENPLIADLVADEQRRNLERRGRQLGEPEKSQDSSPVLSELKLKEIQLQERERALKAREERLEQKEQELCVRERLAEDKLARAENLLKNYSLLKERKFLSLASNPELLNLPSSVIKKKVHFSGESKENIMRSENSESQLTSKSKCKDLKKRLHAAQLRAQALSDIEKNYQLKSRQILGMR
From the text: as §1

PKC zeta = target: T2, PKC zeta (Homo sapiens, UniProt Q05513)
T2 sequence (Q05513 1-592): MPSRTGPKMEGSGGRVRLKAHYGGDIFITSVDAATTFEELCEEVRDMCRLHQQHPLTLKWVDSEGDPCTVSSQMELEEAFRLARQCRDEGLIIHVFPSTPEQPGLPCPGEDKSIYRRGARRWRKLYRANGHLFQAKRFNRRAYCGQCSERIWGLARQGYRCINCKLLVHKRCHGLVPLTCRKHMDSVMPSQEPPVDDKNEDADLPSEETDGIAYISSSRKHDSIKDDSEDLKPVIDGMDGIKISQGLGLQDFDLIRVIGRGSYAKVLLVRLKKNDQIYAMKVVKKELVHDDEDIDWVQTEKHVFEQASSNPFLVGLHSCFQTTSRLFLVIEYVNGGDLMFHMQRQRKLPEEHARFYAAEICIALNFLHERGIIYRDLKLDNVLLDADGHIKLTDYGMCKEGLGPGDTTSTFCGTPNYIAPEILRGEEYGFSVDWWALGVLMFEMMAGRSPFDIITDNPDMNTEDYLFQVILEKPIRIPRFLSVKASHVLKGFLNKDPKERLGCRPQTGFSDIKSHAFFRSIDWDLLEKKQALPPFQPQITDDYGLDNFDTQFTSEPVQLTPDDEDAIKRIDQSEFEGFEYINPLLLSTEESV
From the text: as §1

TAO1 = target: T3, TAO1 (Homo sapiens, UniProt Q7L7X3)
T3 sequence (Q7L7X3 1-1001): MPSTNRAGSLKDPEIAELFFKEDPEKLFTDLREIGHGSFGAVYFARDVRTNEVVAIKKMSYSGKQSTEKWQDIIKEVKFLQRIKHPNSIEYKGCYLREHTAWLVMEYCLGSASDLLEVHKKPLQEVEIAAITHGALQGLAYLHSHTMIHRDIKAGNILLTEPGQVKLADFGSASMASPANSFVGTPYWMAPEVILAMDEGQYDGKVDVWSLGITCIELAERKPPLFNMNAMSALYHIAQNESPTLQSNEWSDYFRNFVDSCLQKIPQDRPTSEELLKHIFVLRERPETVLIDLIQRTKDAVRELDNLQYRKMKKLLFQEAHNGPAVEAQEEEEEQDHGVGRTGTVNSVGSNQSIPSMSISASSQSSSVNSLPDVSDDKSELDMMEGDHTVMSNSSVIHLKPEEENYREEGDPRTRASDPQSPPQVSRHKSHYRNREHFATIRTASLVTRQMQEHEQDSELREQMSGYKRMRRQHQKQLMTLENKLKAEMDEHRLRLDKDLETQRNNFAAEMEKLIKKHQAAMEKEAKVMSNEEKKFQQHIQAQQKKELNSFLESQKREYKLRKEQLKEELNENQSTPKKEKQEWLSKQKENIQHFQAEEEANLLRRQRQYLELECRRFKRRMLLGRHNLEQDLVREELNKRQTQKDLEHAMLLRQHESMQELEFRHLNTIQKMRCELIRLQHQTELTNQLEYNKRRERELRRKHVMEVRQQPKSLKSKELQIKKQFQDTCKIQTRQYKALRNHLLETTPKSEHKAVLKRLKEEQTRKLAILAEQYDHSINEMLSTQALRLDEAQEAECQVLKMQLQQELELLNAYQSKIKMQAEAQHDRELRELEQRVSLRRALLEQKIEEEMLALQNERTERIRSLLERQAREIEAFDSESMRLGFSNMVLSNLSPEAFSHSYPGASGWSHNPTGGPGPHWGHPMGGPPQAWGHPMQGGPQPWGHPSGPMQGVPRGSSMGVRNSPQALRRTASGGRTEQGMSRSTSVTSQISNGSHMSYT
From the text: as §1

MST2 = target: T4, MST2 (Homo sapiens, UniProt Q13188)
T4 sequence (Q13188 1-491): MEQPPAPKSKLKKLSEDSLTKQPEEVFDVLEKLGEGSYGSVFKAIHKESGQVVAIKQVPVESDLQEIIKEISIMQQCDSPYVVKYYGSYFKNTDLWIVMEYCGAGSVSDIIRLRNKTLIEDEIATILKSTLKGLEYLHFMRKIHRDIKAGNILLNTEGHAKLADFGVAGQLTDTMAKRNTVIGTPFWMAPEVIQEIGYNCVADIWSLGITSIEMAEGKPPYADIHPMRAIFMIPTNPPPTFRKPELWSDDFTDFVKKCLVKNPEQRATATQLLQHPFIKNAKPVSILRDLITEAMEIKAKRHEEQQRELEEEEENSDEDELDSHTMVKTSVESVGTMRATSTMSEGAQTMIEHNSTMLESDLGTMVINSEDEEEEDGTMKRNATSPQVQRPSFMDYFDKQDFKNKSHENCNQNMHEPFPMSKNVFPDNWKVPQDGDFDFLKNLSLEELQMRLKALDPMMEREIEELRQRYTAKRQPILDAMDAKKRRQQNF
From the text: as §1

Lck = Lck (Homo sapiens, UniProt P06239)
Lck, sequence (P06239 whole entry): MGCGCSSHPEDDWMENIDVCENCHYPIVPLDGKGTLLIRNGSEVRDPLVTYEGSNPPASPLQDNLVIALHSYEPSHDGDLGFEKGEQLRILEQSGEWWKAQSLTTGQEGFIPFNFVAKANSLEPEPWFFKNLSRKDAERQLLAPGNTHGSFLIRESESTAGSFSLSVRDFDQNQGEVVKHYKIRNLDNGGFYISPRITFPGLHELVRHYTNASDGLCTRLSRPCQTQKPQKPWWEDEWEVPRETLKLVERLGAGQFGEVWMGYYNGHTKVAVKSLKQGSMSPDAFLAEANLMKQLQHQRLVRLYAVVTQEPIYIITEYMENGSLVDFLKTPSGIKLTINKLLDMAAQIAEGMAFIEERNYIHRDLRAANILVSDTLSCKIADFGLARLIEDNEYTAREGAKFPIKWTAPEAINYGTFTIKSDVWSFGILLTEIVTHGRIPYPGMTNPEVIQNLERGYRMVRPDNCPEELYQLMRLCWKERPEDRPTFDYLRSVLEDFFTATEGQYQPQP
From the text: as §1

DAPK1, sequence (P53355 whole entry): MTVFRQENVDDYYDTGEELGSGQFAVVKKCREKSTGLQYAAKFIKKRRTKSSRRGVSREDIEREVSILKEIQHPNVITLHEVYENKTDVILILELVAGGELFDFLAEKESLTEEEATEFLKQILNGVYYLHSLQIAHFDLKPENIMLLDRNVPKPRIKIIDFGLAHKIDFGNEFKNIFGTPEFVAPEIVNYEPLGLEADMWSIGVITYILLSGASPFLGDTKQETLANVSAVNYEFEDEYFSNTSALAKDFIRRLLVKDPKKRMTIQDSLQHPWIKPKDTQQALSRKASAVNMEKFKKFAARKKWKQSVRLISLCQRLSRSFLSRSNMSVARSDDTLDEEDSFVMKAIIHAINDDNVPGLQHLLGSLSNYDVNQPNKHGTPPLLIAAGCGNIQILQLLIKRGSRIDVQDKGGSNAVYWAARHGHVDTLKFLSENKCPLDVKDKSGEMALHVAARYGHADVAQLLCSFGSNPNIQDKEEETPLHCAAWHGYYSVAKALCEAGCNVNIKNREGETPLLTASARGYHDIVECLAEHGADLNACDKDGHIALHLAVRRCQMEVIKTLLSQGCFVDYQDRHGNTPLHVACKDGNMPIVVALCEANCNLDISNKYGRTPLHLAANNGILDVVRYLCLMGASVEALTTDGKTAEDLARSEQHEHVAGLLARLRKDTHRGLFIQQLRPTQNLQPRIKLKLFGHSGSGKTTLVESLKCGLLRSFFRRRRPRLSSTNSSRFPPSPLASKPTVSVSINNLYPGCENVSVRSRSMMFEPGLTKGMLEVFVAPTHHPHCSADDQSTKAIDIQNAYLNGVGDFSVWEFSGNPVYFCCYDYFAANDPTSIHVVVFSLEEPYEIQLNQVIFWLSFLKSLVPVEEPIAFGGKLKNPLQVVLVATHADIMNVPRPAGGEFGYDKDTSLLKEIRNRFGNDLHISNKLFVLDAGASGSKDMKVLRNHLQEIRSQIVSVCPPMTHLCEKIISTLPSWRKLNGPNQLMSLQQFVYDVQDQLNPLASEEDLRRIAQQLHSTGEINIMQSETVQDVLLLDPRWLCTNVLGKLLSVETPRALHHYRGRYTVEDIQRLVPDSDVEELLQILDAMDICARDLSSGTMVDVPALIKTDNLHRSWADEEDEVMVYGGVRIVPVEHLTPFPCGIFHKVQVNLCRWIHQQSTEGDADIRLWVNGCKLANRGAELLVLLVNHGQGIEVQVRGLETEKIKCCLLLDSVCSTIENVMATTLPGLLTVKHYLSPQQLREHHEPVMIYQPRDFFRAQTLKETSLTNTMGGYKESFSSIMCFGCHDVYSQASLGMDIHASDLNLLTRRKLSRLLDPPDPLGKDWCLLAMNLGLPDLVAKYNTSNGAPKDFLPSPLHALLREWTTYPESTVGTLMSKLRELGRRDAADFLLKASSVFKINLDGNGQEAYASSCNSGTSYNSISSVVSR

| Compound | remaining activity at 1 µM (DAPK1) [%] | remaining activity at 1 µM (NEK2a) [%] | remaining activity at 1 µM (PKC zeta) [%] | remaining activity at 1 µM (TAO1) [%] | remaining activity at 1 µM (MST2) [%] | remaining activity at 1 µM (Lck) [%] | remaining activity at 1 µM (DAPK1; 1 µM) [%] | remaining activity at 1 µM (NEK2a; 1 µM) [%] | remaining activity at 1 µM (PKC zeta; 1 µM) [%] | remaining activity at 1 µM (TAO1; 1 µM) [%] | remaining activity at 1 µM (MST2; 1 µM) [%] | remaining activity at 1 µM (Lck; 1 µM) [%] |
| --- | --- | --- | --- | --- | --- | --- | --- | --- | --- | --- | --- | --- |
| COc1ccc(Cl)c(S(=O)(=O)Nc2ccc(-c3nc(OC[C@H]4CNCCO4)c4c(C)n[nH]c4n3)cc2)c1 [290-R, reference compound] | 87 | 74 | 110 | 110 | 105 | 89 |  |  |  |  |  |  |
| Cc1ccc(F)c(S(=O)(=O)Nc2ccc(-c3nc(OC[C@H]4CNCCO4)c4cn[nH]c4n3)cc2)c1 [308-R, reference compound] | 91 | 67 | 72 | 123 | 86 | 98 |  |  |  |  |  |  |
| Cc1ccc(F)c(S(=O)(=O)Nc2ccc(-c3nc(OC[C@H]4CN(CCCCCCOCCOCCOCC(=O)N[C@H](C(=O)N5C[C@H](O)C[C@H]5C(=O)NCc5ccc(-c6scnc6C)cc5)C(C)(C)C)CCO4)c4cn[nH]c4n3)cc2)c1 [SGK3-PROTAC1] |  |  |  |  |  |  | 100 | 162 | 96 | 99 | 112 | 124 |
| Cc1ccc(F)c(S(=O)(=O)Nc2ccc(-c3nc(OC[C@H]4CN(CCCCCCOCCOCCOCC(=O)N[C@H](C(=O)N5C[C@@H](O)C[C@H]5C(=O)NCc5ccc(-c6scnc6C)cc5)C(C)(C)C)CCO4)c4cn[nH]c4n3)cc2)c1 [cisSGK3-PROTAC1] |  |  |  |  |  |  | 108 | 139 | 110 | 105 | 100 | 116 |
